Where no end group is shown, it is not given here.
Legend:
[1] = test system: PHA blasts (mitogen-activated normal human T lymphocytes); assay: FACS analysis of PHA blasts treated with bleomycin and peptides; type: cell-based; details: FIG. 3D; for cell cycle pattern of PHA blasts, peptide in addition to bleomycin: 20 hr
Protocol: (§1) Cell-cycle analysis. The cell cycle status of the cells treated with peptides and/or bleomycin or colchicine was analyzed by FACS, as described by Kawabe (1997) Nature 385:454-458. In brief, two million Jurkat cells were re-suspended and incubated in 300 μl Krishan's solution (0.1% Sodium citrate, 50 μg/ml PI, 20 μg/ml RNase A and 0.5% NP-40; see supra) for 1 hr at 4° C. and analyzed by FACScan™ (Beckton Dickinson, Mountain View, Calif.) with the program CELLQuest™ (Beckton Dickinson).
(§2) The effect of TAT-S216A and TAT-S216 on the cell death induced by bleomycin was examined. The results are shown in FIG. 3; Trypan blue dye exclusion analysis of Jurkat cells treated with bleomycin (A) or colchicine (B) with or without indicated peptides. Bars, SD Vertical axis, % viability of the cells; Bleo 5, bleomycin 5 μg/ml; Bleo 10, bleomycin 10 μg/ml; colchicine, 5 μg/ml; TAT-S216 or TAT-S216A, 10 μM of indicated peptide. […] C, survival analysis of PHA blasts treated with bleomycin and peptides. Vertical axis, % viability of the cells determined by trypan blue dye exclusion analysis; horizontal axis, time in hours. Bleo 5, bleomycin 5 μg/ml; Bleo 10, bleomycin 10 μg/ml; TAT-S216 or TAT-S216A, 10 μM of indicated peptide. D, FACS analysis of the cells treated with bleomycin and peptides. PHA-blasts were treated with bleomycin with or without peptides for 20 hr. Vertical axis, cell number; horizontal axis, DNA content indicated by propidium iodide staining.
In order to confirm the specificity of the effect of these peptides on cancer cells in which the G1 checkpoint is abrogated; the effect of these peptides on normal human cells was investigated. Mitogen-activated normal human T lymphocytes (PHA blasts) were prepared by stimulating peripheral blood mononuclear cells obtained from a healthy donor with PHA for 1 week. These cells were treated with bleomycin (5 and 10 μg/ml) in the presence or absence of either TAT-S216A or TAT-S216.

[2] = test system: PHA blasts (mitogen-activated normal human T lymphocytes); assay: Trypan blue dye exclusion survival analysis of PHA blasts treated with bleomycin and peptides; type: cell-based; details: FIG. 3C; bleomycin 5 and 10 μg/ml; peptide 10 μM
Protocol: Cell culture and plasmids. A human T-cell leukemia-derived cell line, Jurkat, was cultured in RPMI 1640 (Sigma) supplemented with 10% fetal calf serum. (IBL: Immuno-Biological Laboratories, Gunma, Japan) at 37° C./5% CO2. Human pancreatic epitheloid carcinoma-derived cell lines, MIA PaCa2 and PANC1, were cultured in Eagle's MEM (IWAKI, Chiba, Japan) and Dulbecco's modified Eagle's medium with 4 mM […] (Sigma) and 1.0 mM sodium pyruvate (Life Technologies, Inc., Grand Island, N.Y.), respectively, and supplemented with 10% fetal calf serum at 37° C./5% CO2. Normal human peripheral blood lymphocytes were collected by Ficoll-Paque (Amersham Pharmacia Biotech) density gradient. Two million cells/ml were cultured in RPMI 1640 supplemented with 10% fetal calf serum at 37° C./5% CO2 in the presence of 5 μg/ml PHA (Life Technologies, Inc.) for a week. Baculovirus lysates that include HA-tagged hChk1 (SEQ ID NO:3) or c-myc-tagged Chk2/HuCds1 (SEQ ID NO:4) and plasmid for GST-Cdc25C (amino, acid 200-256) were made as described in Matsuoka (1998) Science 282:1893-1897, and provided by Dr. Makoto Nakanishi (Department of Biochemistry, Nagoya City University.
The effect of TAT-S216A and TAT-S216 on the cell death induced by bleomycin was examined. […] Vertical axis, % viability of the cells determined by trypan blue dye exclusion analysis; horizontal axis, time in hours. […]

Jurkat cells [3] = assay: Trypan blue dye exclusion analysis of Jurkat cells treated with bleomycin or colchicine with or without peptides; type: cell-based; details: for effect on cytotoxicity by colchicine: FIG. 3B, colchicine 5 μg/ml
Protocol: as §2

[4] = test system: histone H1 kinase activity; assay: Histone H1 kinase assay on lysates of treated Jurkat cells; type: cell-based, human; details: FIG. 2B, 6 hr
Protocol: Histone H1 kinase assay. Ten million Jurkat cells were treated with hydroxyurea (100 μg/ml), bleomycin (10 μg/ml), or colchicine (5 μg/ml) with or without addition of TAT-S216A, TAT-S216 or TAT-Control (10 μM) for 6 hr. The cells were washed in cold PBS and lysed at 4° C. in 1 ml of buffer A (50 mM Tris pH 8, 2 mM DTT, 5 mM EDTA, 100 mM NaCl, 0.5% NP40, 20 mM Na3V04, 50 mM NaF, 4 μM Okadaic acid, 5 μg/ml aprotinin, 5 μg/ml pepstatin A and 5 μg/ml leupeptin.). Twenty microliter of p13^suc1 agarose beads (Upstate Biotechnology., Saranac, N.Y.) were added to the cleared lysates, incubated for 4 hr at 4° C., and washed five times with buffer A without 5 mM EDTA, 20 mM Na3V04, 50 mM NaF, 4 μM Okadaic acid. Histone HI kinase activity on the beads were analyzed by using Cdc2 kinase assay kit (Upstate Biotechnology) with [γ-^32P] ATP, followed by 12% SDS-PAGE electrophoresis, and autoradiographed to detect the phosphorylated Histone H1.
(§3) The cell cycle status of the cells treated with TAT-S216A or TAT-S216 upon the DNA damage-induced G2 arrest was analyzed by FACS analysis. Histone H1 kinase activities of theses cells were simultaneously monitored. […] Results are shown in FIG. 2: abrogation of DNA damage-induced G2 arrest by TAT-S216A and TAT-S216 peptides. FIG. 2A, FACS analysis of Jurkat cells treated with bleomycin and peptides. Cells were treated with bleomycin (10 μg/ml) with or without peptides (10 μM) for 20 hr. B, histone H1 kinase analysis. Cell lysates were prepared from the cells treated with the indicated reagent for 6 hr. Concentrations used were: hydroxyurea (HU), 100 μg/ml; bleomycin (Bleo), 10 μg/ml; colchicine, 5 μg/ml; TAT-S216A and TAT-S216, 10 μM. C, FACS analysis of colchicine -and peptide-treated cells. Jurkat cells were treated with colchicine (5 μg/ml) with or without peptide (10 μM) for 20 hr.

hChk1 = biological target: T1, hChk1 (Homo sapiens, UniProt O14757, I471V); assay: In vitro immune complex kinase assay, Cdc25C phosphorylation by purified hChk1; type: biochemical; details: FIG. 1B; peptide 10 μM; substrate 1 μM
T1 construct: made in house; host or cells: insect cells, recombinant baculovirus (lysates provided by Dr. Makoto Nakanishi)
T1 sequence (O14757 1-476 I471V): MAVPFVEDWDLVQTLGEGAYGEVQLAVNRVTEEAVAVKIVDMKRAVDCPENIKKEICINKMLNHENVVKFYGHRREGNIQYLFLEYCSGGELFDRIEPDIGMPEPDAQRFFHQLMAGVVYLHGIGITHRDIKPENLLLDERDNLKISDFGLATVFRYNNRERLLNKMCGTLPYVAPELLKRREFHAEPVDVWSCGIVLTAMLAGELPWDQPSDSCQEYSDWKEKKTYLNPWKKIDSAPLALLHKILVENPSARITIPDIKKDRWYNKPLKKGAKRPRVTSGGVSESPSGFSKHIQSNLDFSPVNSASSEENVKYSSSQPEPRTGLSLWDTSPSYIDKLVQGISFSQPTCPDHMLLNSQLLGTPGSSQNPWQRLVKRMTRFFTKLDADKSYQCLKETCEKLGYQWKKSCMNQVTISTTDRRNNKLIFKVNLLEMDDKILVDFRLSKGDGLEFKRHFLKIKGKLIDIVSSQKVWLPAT
Protocol: Kinase assay. HA-tagged hChk1 (SEQ ID NO:3) and c-myc-tagged Chk2/HuCds1 (SEQ ID NO:4) expressed in insect cells using recombinant baculovirus (see, e.g., Kaneko (1999) Oncogene 18:3673-3681) were purified by immunoprecipitation using anti-HA or anti-c-myc antibodies and protein G-Sepharose. Immune complex kinase reaction was done in PBS with 1 mM DTT, 1 mM MgCl2 and 100 μCi of [γ-^32P] ATP (Amersham; 6000 Ci/mmol) plus purified 1 μM GST-Cdc25C or 10 μM Cdc25C peptide (amino acid 211 to 221 of Cdc25C (SEQ ID NO: 2); […], Sawady Technology Co.) substrates at 30° C. for 15 min in the presence of 10 μM TAT-S216, TAT-S216A or TAT-Control. After the reaction, samples were separated in 12% or 15% SDS-PAGE and autoradiographed to detect GST-Cdc25C or peptide phosphorylation.
The results are shown in FIG. 1: TAT-S216A and TAT-S216 peptides inhibit hChk1 and Chk2/HuCds1 kinase activities in vitro. FIG. 1A. sequences of the peptides. FIG. 1B, in vitro phosphorylation analysis using GST-Cdc25C and purified hChk1. GST-Cdc25C (amino acid 200-256) that was produced in E. coli (DH5α) was used as substrate (1 μM). Immune complex kinase reaction was done in the presence of TAT-S216A (10 μM) or TAT-S216 (10 μM). FIG. 1C, in vitro phosphorylation analysis of hChk1 and Chk2/HuCds1 using synthesized Cdc25C peptide corresponding amino acid 211-221 of Cdc25C ([…] (SEQ ID NO: 2)) as a substrate (10 μM).

Jurkat cells [5] = assay: Cell-cycle analysis by FACS, DNA damage-induced G2 arrest; type: cell-based, human; details: bleomycin 10 μg/ml
Protocol: as §1, §3

Jurkat cells [6] = assay: FACS DNA content of colchicine-treated Jurkat cells with oligopeptides (Example 3); type: cell-based, human; details: FIG. 7; colchicine 2.5 μg/ml
Protocol: Other screening methods can be used to identify selective inhibitors of the G2 cell cycle checkpoint. For, the cells are simultaneously treated with an oligopeptide “candidate phosphorylation substrate” and an M phase checkpoint activator, such as colchicine or nocodazol. The DNA content of the cells are analyzed some 10 to 48 hours after the treatment as described above.
In another experiment, an M phase checkpoint activator, colchicine, was used instead of bleomycin: colchicine at 2.5 μg/ml; colchicine at 2.5 μg/ml and the peptide “4aa”; colchicine at 2.5 μg/ml and the peptide AAA (Table 1); colchicine at 2.5 μg/ml and the peptide YNP (Table 1), and no treatment.

Jurkat cells [7] = assay: FACS DNA content of bleomycin-treated Jurkat cells with oligopeptides (Example 3); type: cell-based, human; details: FIG. 6, bleomycin 20 μg/ml, 0, 6, 12, 24 hours
Protocol: The cells with the deficient cell cycle G1 checkpoint (such as a human leukemia-derived cell line Jurkat) were treated with a DNA damaging treatment. As the DNA damaging treatment, the cells were treated with bleomycin or other anti-cancer drugs. These drugs were added to the cell culture medium. Alternatively, the cells were irradiated with gamma irradiation. Peptides were added to these cells and the amount of DNA was determined some 10 to 48 hours after the DNA damage. The harvested cells were re-suspended with the solution that includes propidium iodide, RNase and NP-40 and analyzed by flow cytometer. […]
Jurkat cells were cultured in 10% fetal calf serum with a medium (RPMI 1640) at 37° C./5% CO2 with: bleomycin at 20 μg/ml; bleomycin at 20 μg/ml and the peptide “4aa” (amino acid sequence is GGSPSM (SEQ ID NO: 1931)); bleomycin at 20 μg/ml and the peptide AAA (Table 1); bleomycin at 20 μg/ml and the peptide YNP (Table 1). The amount of DNA was analyzed at 0, 6, 12, 24 hours after the addition of ten microgram of bleomycin with or without the oligopeptides “4aa,” “YNP” and “AAA.” The DNA quantity was analyzed by a flow cytometer (FACS) after the addition of a solution comprising propidium iodide, RNase and NP-40. […]

With YGRKKRRQRRRLYRSPSMPENL [TAT-S216] the “cell cycle pattern of PHA blasts, peptide in addition to bleomycin” value [1] was “no further alteration of cell cycle pattern was observed”, the “effect on cytotoxicity of bleomycin to normal cells (PHA blasts)” value [2] was “did not increase the cytotoxicity of bleomycin to normal cells” and the “effect on cytotoxicity by colchicine” value (Jurkat cells [3]; peptide 10 μM) was “did not affect the cytotoxicity by colchicine”.
With “TAT-Control: control peptide: TAT domain with Cdc25C portion partially deleted and substituted with glycine (GGRSPAMPE) (YGRKKRRQRRRGGRSPAMPE)” the “histone H1 kinase activity on bleomycin treatment in the presence of peptide” value ([4]; bleomycin 10 μg/ml, peptide 10 μM) was “did not affect”, the “phosphorylation of GST-Cdc25C (amino acid 200-256) by baculovirus-produced hChk1” value (hChk1) was “did not inhibit” and the “effect on bleomycin-induced cell death / viability of bleomycin-treated Jurkat cells” value (Jurkat cells [3]; FIG. 3A, bleomycin 5 or 10 μg/ml, peptide 10 μM) was “did not affect the viability”. The “G2 arrest in response to bleomycin” value (Jurkat cells [5]; FIG. 2A, peptide 10 μM, 20 hr) was “arrested at G2 similarly to the cells treated with bleomycin alone”.
In the case of Y G G P G G G G N (YGGPGGGGN) [YPN], the “accumulation of colchicine-treated cells at the G2/M phase” value (Jurkat cells [6]) is reported as “None of the above tested oligopeptides (Table 1), including, YPN, affected the accumulation”, the “G2 checkpoint / accumulation of bleomycin-treated cells at G2/M” value (Jurkat cells [7]) is reported as “specifically abrogated the cell cycle at the G2 checkpoint” and the “G2 checkpoint / accumulation of bleomycin-treated cells at G2/M” value (Jurkat cells [7]; listed as YNP) is reported as “abrogated the G2 checkpoint”.
In the case of Bleomycin [reference compound], the “histone H1 kinase activity on treatment with drug alone” value ([4]; bleomycin 10 μg/ml or hydroxyurea 100 μg/ml) is reported as “decreased”, the “cell cycle arrest of PHA blasts by bleomycin alone” value ([1]; bleomycin 5 μg/ml) is reported as “arrested at G1 and S phase but not G2” and the “Jurkat cells killed, bleomycin alone” value (Jurkat cells [3]; FIG. 3A, bleomycin at 5 or μ10 g/ml) is reported as 27-30%. The “cell cycle arrest of Jurkat cells by bleomycin alone” value (Jurkat cells [5]) was “arrested exclusively at G2”.
YGRKKRRQRRRLYRSPAMPENL [TAT-S216A] was tested, and the “cell cycle pattern of PHA blasts, peptide in addition to bleomycin” value [1] was “no further alteration of cell cycle pattern was observed”, the “effect on cytotoxicity of bleomycin to normal cells (PHA blasts)” value [2] was “did not increase the cytotoxicity of bleomycin to normal cells” and the “effect on cytotoxicity by colchicine” value (Jurkat cells [3]; peptide 10 μM) was “did not affect the cytotoxicity by colchicine”.

Source: patent US7851592B2, “Compositions and methods for inhibiting G2 cell cycle arrest and sensitizing cells to DNA damaging agents” (CanBas Co. Ltd., priority 1999, dated 2010)
